Data as given in the kinase profiling compilation of Christmann-Franck et al. (2016).

How the values were obtained:
Test in all cases: KINOMEscan competition binding
Conditions in all cases: compound 10.0 µM
[1] = target: ANKK1 (human) (UniProt Q8NFD2)
[2] = target: CDC42BPG (human) (UniProt Q6DT37)
[3] = target: CDK14 (human) (UniProt O94921)
[4] = target: CDK16 (human) (UniProt Q00536)
[5] = target: CDK2 (human) (UniProt P24941)
[6] = target: CDK4 CCND3 (human) (UniProt P11802+P30281)
[7] = target: CDK8 (human) (UniProt P49336)
[8] = target: CRK2 (P.falciparum) (UniProt P61075)
[9] = system: EGFR (human), P00533 [747-751 del / S ins]
[10] = system: EGFR (human), P00533 [L858R]
[11] = target: EIF2AK2 (human) (UniProt P19525)
[12] = target: EPHA1 (human) (UniProt P21709)
[13] = target: FGFR4 (human) (UniProt P22455)
[14] = target: FGR (human) (UniProt P09769)
[15] = system: FLT3 (human), P36888 [D835H]
[16] = target: FLT4 (human) (UniProt P35916)
[17] = target: GRK4 (human) (UniProt P32298)
[18] = target: IRAK1 (human) (UniProt P51617)
[19] = target: JAK1 JH2 pseudokinase (human) (UniProt P23458)
[20] = target: JAK2 JH1 catalytic (human) (UniProt O60674)
[21] = target: KIT (human) (UniProt P10721)
[22] = system: LRRK2 (human), Q5S007 [G2019S]
[23] = target: MAP2K7 (human) (UniProt O14733)
[24] = target: MAP3K2 (human) (UniProt Q9Y2U5)
[25] = target: MAP4K4 (human) (UniProt O95819)
[26] = target: MAPK13 (human) (UniProt O15264)
[27] = target: MAPK15 (human) (UniProt Q8TD08)
[28] = target: MELK (human) (UniProt Q14680)
[29] = target: MLTK (human) (UniProt Q9NYL2)
[30] = target: MUSK (human) (UniProt O15146)
[31] = target: MYLK (human) (UniProt Q15746)
[32] = target: MYO3B (human) (UniProt Q8WXR4)
[33] = target: NEK6 (human) (UniProt Q9HC98)
[34] = target: PLK1 (human) (UniProt P53350)
[35] = target: RAF1 (human) (UniProt P04049)
[36] = target: SGK110 (human) (UniProt P0C264)
[37] = target: SRPK1 (human) (UniProt Q96SB4)
[38] = target: SRPK3 (human) (UniProt Q9UPE1)
[39] = target: STK17A (human) (UniProt Q9UEE5)
[40] = target: STK3 (human) (UniProt Q13188)
[41] = target: STK32B (human) (UniProt Q9NY57)
[42] = target: YES1 (human) (UniProt P07947)

SRPK1 (human), sequence (Q96SB4 whole entry, looked up): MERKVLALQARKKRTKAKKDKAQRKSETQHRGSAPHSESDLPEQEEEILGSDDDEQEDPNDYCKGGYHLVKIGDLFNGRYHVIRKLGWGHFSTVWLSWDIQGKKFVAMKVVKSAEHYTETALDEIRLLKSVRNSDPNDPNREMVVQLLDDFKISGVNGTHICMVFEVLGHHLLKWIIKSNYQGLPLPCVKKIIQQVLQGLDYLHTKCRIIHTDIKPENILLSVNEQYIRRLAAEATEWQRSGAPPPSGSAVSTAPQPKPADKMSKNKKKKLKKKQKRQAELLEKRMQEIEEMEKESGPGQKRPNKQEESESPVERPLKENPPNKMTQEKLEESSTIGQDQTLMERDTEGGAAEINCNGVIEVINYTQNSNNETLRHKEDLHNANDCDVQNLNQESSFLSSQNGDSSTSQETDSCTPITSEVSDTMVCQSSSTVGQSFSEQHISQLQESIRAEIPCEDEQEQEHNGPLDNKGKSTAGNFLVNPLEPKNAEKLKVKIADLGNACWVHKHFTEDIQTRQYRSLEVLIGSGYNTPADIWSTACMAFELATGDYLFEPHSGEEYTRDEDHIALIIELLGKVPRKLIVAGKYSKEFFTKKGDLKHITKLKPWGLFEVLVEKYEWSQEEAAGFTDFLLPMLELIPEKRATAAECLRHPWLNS
MAP4K4 (human), sequence (O95819 whole entry, looked up): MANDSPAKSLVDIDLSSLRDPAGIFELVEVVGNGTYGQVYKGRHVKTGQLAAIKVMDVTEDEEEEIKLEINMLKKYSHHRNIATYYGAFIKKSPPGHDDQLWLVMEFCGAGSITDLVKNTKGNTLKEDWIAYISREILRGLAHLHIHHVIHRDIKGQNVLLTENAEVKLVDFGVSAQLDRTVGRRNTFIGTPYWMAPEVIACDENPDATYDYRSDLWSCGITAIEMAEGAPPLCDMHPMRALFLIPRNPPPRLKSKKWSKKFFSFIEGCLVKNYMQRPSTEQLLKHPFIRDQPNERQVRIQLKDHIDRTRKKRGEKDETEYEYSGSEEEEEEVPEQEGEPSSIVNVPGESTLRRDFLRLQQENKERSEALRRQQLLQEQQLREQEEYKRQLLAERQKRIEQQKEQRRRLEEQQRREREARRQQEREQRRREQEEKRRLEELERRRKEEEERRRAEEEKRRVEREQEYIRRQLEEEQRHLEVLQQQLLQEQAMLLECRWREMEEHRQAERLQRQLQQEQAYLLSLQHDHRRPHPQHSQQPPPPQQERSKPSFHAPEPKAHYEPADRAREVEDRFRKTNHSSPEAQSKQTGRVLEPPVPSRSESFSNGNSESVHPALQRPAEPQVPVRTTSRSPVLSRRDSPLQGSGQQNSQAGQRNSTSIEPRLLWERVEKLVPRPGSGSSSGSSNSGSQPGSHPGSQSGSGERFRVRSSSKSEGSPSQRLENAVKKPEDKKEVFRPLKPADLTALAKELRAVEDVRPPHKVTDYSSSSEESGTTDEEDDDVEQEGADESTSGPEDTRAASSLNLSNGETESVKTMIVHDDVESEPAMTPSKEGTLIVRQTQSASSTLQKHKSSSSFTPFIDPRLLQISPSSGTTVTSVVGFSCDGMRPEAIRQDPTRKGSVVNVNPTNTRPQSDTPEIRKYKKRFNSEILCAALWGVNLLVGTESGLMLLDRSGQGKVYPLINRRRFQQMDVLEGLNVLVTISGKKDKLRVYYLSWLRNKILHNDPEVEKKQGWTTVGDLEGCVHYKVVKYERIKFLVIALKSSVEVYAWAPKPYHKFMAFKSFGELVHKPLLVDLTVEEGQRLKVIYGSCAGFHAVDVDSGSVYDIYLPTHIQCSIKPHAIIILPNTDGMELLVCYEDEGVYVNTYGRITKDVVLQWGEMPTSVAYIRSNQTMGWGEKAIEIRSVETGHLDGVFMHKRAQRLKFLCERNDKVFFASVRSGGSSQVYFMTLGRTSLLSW
CDC42BPG (human), sequence (Q6DT37 whole entry, looked up): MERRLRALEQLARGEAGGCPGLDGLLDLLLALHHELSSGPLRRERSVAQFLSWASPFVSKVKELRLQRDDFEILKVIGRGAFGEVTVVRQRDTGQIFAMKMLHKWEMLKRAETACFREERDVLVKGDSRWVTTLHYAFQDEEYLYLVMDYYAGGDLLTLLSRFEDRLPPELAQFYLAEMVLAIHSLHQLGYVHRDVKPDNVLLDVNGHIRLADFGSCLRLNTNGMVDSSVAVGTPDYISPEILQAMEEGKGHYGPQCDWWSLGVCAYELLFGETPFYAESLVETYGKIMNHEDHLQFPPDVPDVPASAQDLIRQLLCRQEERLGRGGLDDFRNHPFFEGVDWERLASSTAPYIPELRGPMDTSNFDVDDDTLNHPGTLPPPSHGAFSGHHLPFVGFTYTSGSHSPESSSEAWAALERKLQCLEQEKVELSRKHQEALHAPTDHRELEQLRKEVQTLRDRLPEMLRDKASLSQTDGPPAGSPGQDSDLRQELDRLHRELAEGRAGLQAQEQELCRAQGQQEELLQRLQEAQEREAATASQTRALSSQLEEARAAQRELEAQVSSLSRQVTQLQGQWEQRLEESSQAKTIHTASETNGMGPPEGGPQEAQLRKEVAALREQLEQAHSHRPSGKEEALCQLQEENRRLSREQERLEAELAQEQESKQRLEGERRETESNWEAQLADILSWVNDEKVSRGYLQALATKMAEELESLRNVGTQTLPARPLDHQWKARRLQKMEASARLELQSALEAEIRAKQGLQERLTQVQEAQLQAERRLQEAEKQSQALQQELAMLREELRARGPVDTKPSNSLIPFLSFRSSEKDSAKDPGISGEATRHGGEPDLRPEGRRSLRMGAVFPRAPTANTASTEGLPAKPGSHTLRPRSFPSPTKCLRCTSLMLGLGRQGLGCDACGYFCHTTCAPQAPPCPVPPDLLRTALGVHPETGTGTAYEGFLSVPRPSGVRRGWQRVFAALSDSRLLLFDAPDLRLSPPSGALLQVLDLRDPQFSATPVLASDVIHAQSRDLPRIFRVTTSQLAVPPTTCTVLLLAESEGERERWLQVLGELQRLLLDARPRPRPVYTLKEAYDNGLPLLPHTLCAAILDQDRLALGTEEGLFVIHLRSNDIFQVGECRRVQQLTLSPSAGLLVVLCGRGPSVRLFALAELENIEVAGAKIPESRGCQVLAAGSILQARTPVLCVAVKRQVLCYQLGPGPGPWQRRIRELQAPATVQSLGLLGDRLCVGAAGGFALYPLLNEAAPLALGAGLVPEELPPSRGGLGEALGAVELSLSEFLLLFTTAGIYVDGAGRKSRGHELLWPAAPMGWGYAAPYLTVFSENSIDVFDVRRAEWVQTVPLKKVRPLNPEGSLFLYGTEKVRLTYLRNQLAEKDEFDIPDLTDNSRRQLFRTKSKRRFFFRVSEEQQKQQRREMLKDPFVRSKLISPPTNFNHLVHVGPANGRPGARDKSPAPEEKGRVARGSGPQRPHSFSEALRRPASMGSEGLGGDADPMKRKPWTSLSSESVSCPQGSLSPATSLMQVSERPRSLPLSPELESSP
CDK14 (human), sequence (O94921 whole entry, looked up): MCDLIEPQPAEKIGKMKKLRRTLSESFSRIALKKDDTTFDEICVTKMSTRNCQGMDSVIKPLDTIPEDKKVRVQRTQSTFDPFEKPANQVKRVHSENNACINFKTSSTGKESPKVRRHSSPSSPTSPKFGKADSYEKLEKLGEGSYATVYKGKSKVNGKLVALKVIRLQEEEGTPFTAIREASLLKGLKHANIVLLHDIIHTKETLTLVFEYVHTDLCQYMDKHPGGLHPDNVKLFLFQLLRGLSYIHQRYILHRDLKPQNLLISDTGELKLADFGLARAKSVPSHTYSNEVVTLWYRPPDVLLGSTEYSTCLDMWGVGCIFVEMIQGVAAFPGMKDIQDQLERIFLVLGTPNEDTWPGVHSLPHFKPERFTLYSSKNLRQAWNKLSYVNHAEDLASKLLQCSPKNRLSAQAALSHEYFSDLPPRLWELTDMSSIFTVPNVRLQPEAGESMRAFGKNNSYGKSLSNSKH
JAK1 JH2 pseudokinase (human), sequence (P23458 whole entry, looked up): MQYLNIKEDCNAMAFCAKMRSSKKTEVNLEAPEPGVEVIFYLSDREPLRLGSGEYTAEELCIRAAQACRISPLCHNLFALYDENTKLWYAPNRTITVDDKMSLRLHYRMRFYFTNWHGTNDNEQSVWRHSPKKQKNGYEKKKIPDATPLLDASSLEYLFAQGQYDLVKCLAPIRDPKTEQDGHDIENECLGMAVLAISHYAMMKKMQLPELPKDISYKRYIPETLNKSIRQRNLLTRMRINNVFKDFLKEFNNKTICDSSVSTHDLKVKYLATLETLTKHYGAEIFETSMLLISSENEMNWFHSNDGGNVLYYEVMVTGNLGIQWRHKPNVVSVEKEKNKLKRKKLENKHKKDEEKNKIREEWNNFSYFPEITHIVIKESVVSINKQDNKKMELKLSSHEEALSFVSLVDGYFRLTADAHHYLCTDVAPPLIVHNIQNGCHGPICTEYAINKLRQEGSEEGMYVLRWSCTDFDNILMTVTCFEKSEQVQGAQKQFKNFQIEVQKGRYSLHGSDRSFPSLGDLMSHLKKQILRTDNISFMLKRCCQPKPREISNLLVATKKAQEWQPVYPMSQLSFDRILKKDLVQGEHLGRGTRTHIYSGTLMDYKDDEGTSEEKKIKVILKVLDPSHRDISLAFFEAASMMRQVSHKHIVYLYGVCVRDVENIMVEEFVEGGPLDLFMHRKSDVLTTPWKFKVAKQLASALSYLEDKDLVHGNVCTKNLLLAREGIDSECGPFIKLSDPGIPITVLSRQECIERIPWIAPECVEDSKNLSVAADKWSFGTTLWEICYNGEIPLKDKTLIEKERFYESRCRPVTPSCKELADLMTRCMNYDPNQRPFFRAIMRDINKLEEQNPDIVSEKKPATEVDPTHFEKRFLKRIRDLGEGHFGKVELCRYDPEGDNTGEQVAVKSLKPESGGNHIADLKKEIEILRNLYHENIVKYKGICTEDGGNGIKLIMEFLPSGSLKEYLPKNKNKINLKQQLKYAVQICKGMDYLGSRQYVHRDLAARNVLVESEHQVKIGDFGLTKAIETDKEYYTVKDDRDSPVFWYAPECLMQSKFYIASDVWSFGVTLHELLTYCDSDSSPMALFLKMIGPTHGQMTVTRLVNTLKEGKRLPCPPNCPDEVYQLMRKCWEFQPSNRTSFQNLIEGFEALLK

Compound: Cc1cc([C@@H](C)Nc2ccccc2C(=O)O)c2nc(N3CCOCC3)cc(=O)n2c1
- kinase still bound, per cent of control [1]: 100%
- kinase still bound, per cent of control [2]: 99%
- kinase still bound, per cent of control [3]: 100%
- kinase still bound, per cent of control [4]: 100%
- kinase still bound, per cent of control [5]: 64%
- kinase still bound, per cent of control [6]: 62%
- kinase still bound, per cent of control [7]: 100%
- kinase still bound, per cent of control [8]: 92%
- kinase still bound, per cent of control [9]: 68%
- kinase still bound, per cent of control [10]: 96%
- kinase still bound, per cent of control [11]: 100%
- kinase still bound, per cent of control [12]: 100%
- kinase still bound, per cent of control [13]: 40%
- kinase still bound, per cent of control [14]: 76%
- kinase still bound, per cent of control [15]: 32%
- kinase still bound, per cent of control [16]: 100%
- kinase still bound, per cent of control [17]: 80%
- kinase still bound, per cent of control [18]: 100%
- kinase still bound, per cent of control [19]: 100%
- kinase still bound, per cent of control [20]: 71%
- kinase still bound, per cent of control [21]: 69%
- kinase still bound, per cent of control [22]: 90%
- kinase still bound, per cent of control [23]: 100%
- kinase still bound, per cent of control [24]: 88%
- kinase still bound, per cent of control [25]: 98%
- kinase still bound, per cent of control [26]: 100%
- kinase still bound, per cent of control [27]: 100%
- kinase still bound, per cent of control [28]: 100%
- kinase still bound, per cent of control [29]: 100%
- kinase still bound, per cent of control [30]: 100%
- kinase still bound, per cent of control [31]: 43%
- kinase still bound, per cent of control [32]: 51%
- kinase still bound, per cent of control [33]: 100%
- kinase still bound, per cent of control [34]: 55%
- kinase still bound, per cent of control [35]: 97%
- kinase still bound, per cent of control [36]: 68%
- kinase still bound, per cent of control [37]: 100%
- kinase still bound, per cent of control [38]: 83%
- kinase still bound, per cent of control [39]: 87%
- kinase still bound, per cent of control [40]: 97%
- kinase still bound, per cent of control [41]: 100%
- kinase still bound, per cent of control [42]: 100%
